Data from publication PMC8951040, “Determination of Flavonoids in Selected Scleranthus Species and Their Anti-Collagenase and Antioxidant Potential” (Molecules, 2022).
Where “and” joins values, the source holds several entries; their conditions need not be identical. Equal values may be shown once.

Legend:
[1] = FRAP ferric reducing antioxidant power assay kit; details: 1 h at 37 °C, absorbance 594 nm; mean ± SD, triplicate
Procedure: The […] of the investigated substances toward ferrous ions was assessed using a ferric reducing antioxidant power assay kit. Briefly, 10 µL of each sample (SP1–SP6, SA1–SA6, 1–9) was mixed with 190 µL of supplied reaction mix (containing FRAP Assay Buffer, FeCl3 solution, and FRAP Probe). After 1 h of incubation at 37 °C, the absorbance was measured at 594 nm. A blank solution containing 10 µL of MeOH instead of extract/compound solution was used. For further calculations, the ferrous standard curve was evaluated. Values are given as mM Ferrous equivalents. All tests were performed in triplicate.

[2] = DPPH radical scavenging assay; details: 30 min incubation, absorbance 517 nm; mean ± SD, triplicate
Procedure: Individual test compounds and extracts in methanol (130 µL) were added to 70 µL of a solution of DPPH (2,2-diphenyl-1-picrylhydrazyl). After 30 min of incubation, the absorbance was evaluated at 517 nm. The determination was performed in triplicate and corrected to a blank sample (pure methanol). The radical scavenging activity of the tested samples was expressed as Trolox equivalents, calculated from the standard curve.

[3] = ABTS radical cation assay (antioxidant assay kit CS0790); details: 5 min incubation, absorbance 405 nm; mean ± SD, triplicate
Procedure: Suppression of the production of the radical cation was measured using an antioxidant assay kit (CS0790). In brief, 10 µL of the test sample, 20 µL of myoglobin working solution, and 150 µL of ABTS working solution (containing ABTS substrate solution and 3% hydrogen peroxide) were mixed into a clear, flat-bottom 96-well plate. After 5 min of incubation, 100 µL of stop solution was added and absorbance was measured at 405 nm. The antioxidant concentration of tested samples was calculated using the equation obtained through linear regression of the Trolox standard curve.

[4] = CUPRAC assay (antioxidant assay kit MAK334); details: 10 min incubation, absorbance 570 nm; mean ± SD, triplicate
Procedure: The reducing power of copper ions was evaluated using an antioxidant assay kit (MAK334). Briefly, 20 µL of sample and 100 µL of reaction mix were added into separate wells in a 96-well plate. After 10 min of incubation, the absorbance endpoint was measured at 570 nm. Total antioxidant capacity was determined using a standard curve evaluated for Trolox.

[5] = biological target: collagenase from Clostridium histolyticum; assay: Anti-collagenase assay (FALGPA substrate); format: biochemical; details: 20 min at 37 °C, absorbance 335 nm, mean ± SD, triplicate
Procedure: The potential anti-collagenase activity was assessed as previously described. In short, a solution including 25 µL of collagenase from Clostridium histolyticum, 25 µL of Tricine buffer, and 25 µL of various levels of the extracts (SP1–SP6, SA1–SA6) or compounds (6–9) were incubated at 37 °C. After 20 min, 75 µL of FALGPA was added. Then, absorbance was measured at 335 nm. The experiment was performed in 50 mM Tris buffer. The blank was evaluated using Tricine buffer, instead of sample, and the positive control was epigallocatechin gallate (EGCG). All measurements were conducted in triplicate and the IC50 for each sample was calculated. The percentage of collagenase inhibitory activity (CoInh) was calculated as follows:Enzyme inhibition activity (%) = [1 − (B/S)] × 100%, where B is the blank and S is the sample.

Compound	FRAP (Fe2+ equivalents) [1] [mM Fe2+ equivalents]	DPPH (radical scavenging activity, Trolox equivalents) [2] [µM Teq]	ABTS (radical scavenging activity, Trolox equivalents) [3] [µM Teq]	CUPRAC (Trolox equivalents) [4]	IC50 [5] [µM]	melting point [°C]
scleranthoside D [Compound 4]	2.65 ± 0.47	9.64 ± 0.82	302.05 ± 2.42	44.22 ± 1.35 µM Teq		
COc1cc(-c2cc(=O)c3c(O)c(C4OC(CO)C(O)C(O)C4O)c(O)c(C4OCC(O)C(O)C4O)c3o2)ccc1O [Compound 9, 5,7,4′-trihydroxy-3′-methoxyflavone-6-C-β-D-glucopyranoside-8-C-α-arabinopyranoside]	9.07 ± 0.45	407.05 ± 1.83	586.69 ± 2.91	18.20 ± 0.76 µM Teq	71.1 ± 0.97	
scleranthoside A [Compound 1]		405.15 ± 3.12	765.16 ± 2.83	581.32 µM Teq and 581.32 ± 3.61 µM Teq		
O=c1cc(-c2ccc(O)c(O)c2)oc2c(C3OC(CO)C(O)C(O)C3O)c(O)c(C3OCC(O)C(O)C3O)c(O)c12 [Compound 7, 5,7,3′,4′-tetrahydroxyflavone-6-C-xyloside-8-C-β-D-glucoside]		409.16 ± 2.03	796.61 ± 1.23	116.16 µM Teq and 116.16 ± 0.76 µM Teq	73.9 ± 1.03	
scleranthoside C [Compound 3]		7.11 ± 0.59	198.57 ± 2.46	67.30 µM Teq and 67.30 ± 1.30 µM Teq		
O=c1cc(-c2cccc(O)c2)oc2c(C3OC(CO)C(O)C(O)C3O)c(O)c(C3OC(CO)C(O)C(O)C3O)c(O)c12 [Compound 8, 5,7,3′-trihydroxyflavone-6-C-glucoside-8-C-β-D-glucoside]	5.16 ± 0.96	176.71 ± 0.97	369.24 ± 3.05	27.15 ± 1.32 µM Teq	53.4 ± 0.88	
O=C(O[C@@H]1Cc2c(O)cc(O)cc2O[C@@H]1c1cc(O)c(O)c(O)c1)c1cc(O)c(O)c(O)c1 [EGCG, epigallocatechin gallate, reference compound]					34.8 ± 0.53	
COc1cc(-c2cc(=O)c3c(O)cc(O)c(C4OCC(O)C(O)C4OC4OC(CO)C(OC(C)=O)C(O)C4O)c3o2)ccc1OC(C)=O [Compound 6, 5,7-dihydroxy-3′-methoxy-4′-acetoxyflavone-8-C-β-D-arabinopyranoside-2″-O-(4‴-acetoxy)-glucoside]		6.69 ± 0.97	169.27 ± 1.68	18.57 µM Teq and 18.57 ± 0.76 µM Teq	39.6 ± 1.21	187 to 188
scleranthoside B [Compound 2]	5.68 ± 0.68	198.43 ± 2.40	188.57 ± 1.86	114.56 ± 2.04 µM Teq		
COc1ccc(C(C)=O)c(O[C@@H]2O[C@H](CO[C@@H]3OC[C@](O)(CO)[C@H]3O)[C@@H](O)[C@H](O)[C@H]2O)c1 [Compound 5, Apiopaeonoside]		61.96 ± 1.90	444.23 ± 0.47	48.46 ± 1.75 µM Teq		
